Measurements taken from the NIST ThermoML archive (doi:10.1016/j.fluid.2007.06.001).
Numbers after ± are expanded uncertainties.

Test: excess molar enthalpy (molar enthalpy of mixing); xn = mol fraction of the nth substance listed
Settings: Liquid

CCCC[n+]1ccn(C)c1.O=S(=O)([N-]S(=O)(=O)C(F)(F)F)C(F)(F)F + CC1CCCCC1
363.15 K, 101.3 kPa
Settings | excess molar enthalpy [kcal/mol]
x2 = 0.1067 | 0.111 ± 0.0043
x2 = 0.2014 | 0.148 ± 0.00574
x2 = 0.2449 | 0.143 ± 0.0055
x2 = 0.286 | 0.137 ± 0.00526
x2 = 0.3621 | 0.123 ± 0.00478
x2 = 0.4308 | 0.111 ± 0.0043
x2 = 0.4932 | 0.099 ± 0.00406
x2 = 0.6022 | 0.0773 ± 0.00335
x2 = 0.6942 | 0.0587 ± 0.00263
x2 = 0.773 | 0.0439 ± 0.0021
x2 = 0.872 | 0.0258 ± 0.00153

CCCCCC[n+]1ccn(C)c1.O=S(=O)([N-]S(=O)(=O)C(F)(F)F)C(F)(F)F + CC(C)=O
353.15 K, 101 kPa
Settings | excess molar enthalpy [kcal/mol]
x2 = 0.02 | -0.0107 ± 0.00108
x2 = 0.0499 | -0.0253 ± 0.00153
x2 = 0.0999 | -0.0512 ± 0.00237
x2 = 0.1498 | -0.0795 ± 0.00335
x2 = 0.1998 | -0.106 ± 0.0043
x2 = 0.2997 | -0.158 ± 0.00598
x2 = 0.3996 | -0.202 ± 0.00765
x2 = 0.4996 | -0.239 ± 0.00884
x2 = 0.5996 | -0.26 ± 0.00956
x2 = 0.6997 | -0.268 ± 0.0098
x2 = 0.7998 | -0.25 ± 0.00932
x2 = 0.8999 | -0.182 ± 0.00693
x2 = 0.9499 | -0.117 ± 0.00454

CCCC[n+]1ccn(C)c1.O=S(=O)([N-]S(=O)(=O)C(F)(F)F)C(F)(F)F + CC(C)=O
353.15 K, 101 kPa
Settings | excess molar enthalpy [kcal/mol]
x2 = 0.05 | -0.031 ± 0.0017
x2 = 0.0999 | -0.0608 ± 0.00263
x2 = 0.1499 | -0.092 ± 0.00382
x2 = 0.1999 | -0.122 ± 0.00478
x2 = 0.2998 | -0.175 ± 0.00669
x2 = 0.4498 | -0.248 ± 0.00908
x2 = 0.5998 | -0.291 ± 0.0108
x2 = 0.6998 | -0.296 ± 0.0108
x2 = 0.7999 | -0.265 ± 0.0098
x2 = 0.8499 | -0.235 ± 0.0086
x2 = 0.8999 | -0.186 ± 0.00693
x2 = 0.95 | -0.118 ± 0.00454

CCCCCC[n+]1ccn(C)c1.O=S(=O)([N-]S(=O)(=O)C(F)(F)F)C(F)(F)F + CCC(C)=O
353.15 K, 101 kPa
Settings | excess molar enthalpy [kcal/mol]
x2 = 0.02 | -0.0125 ± 0.00112
x2 = 0.05 | -0.0296 ± 0.00167
x2 = 0.1 | -0.0578 ± 0.00263
x2 = 0.15 | -0.0902 ± 0.00359
x2 = 0.2001 | -0.12 ± 0.00478
x2 = 0.3001 | -0.17 ± 0.00645
x2 = 0.4001 | -0.215 ± 0.00813
x2 = 0.5001 | -0.25 ± 0.00932
x2 = 0.6001 | -0.274 ± 0.01
x2 = 0.7001 | -0.278 ± 0.0103
x2 = 0.8001 | -0.255 ± 0.00932
x2 = 0.9 | -0.181 ± 0.00693
x2 = 0.95 | -0.114 ± 0.00454

CCCC[n+]1ccn(C)c1.O=S(=O)([N-]S(=O)(=O)C(F)(F)F)C(F)(F)F + CCC(C)=O
353.15 K, 101 kPa
Settings | excess molar enthalpy [kcal/mol]
x2 = 0.0508 | -0.0292 ± 0.00165
x2 = 0.1015 | -0.0592 ± 0.00263
x2 = 0.1521 | -0.0906 ± 0.00359
x2 = 0.2026 | -0.118 ± 0.00454
x2 = 0.3035 | -0.172 ± 0.00645
x2 = 0.4541 | -0.239 ± 0.00884
x2 = 0.6039 | -0.282 ± 0.0103
x2 = 0.7034 | -0.289 ± 0.0105
x2 = 0.8026 | -0.259 ± 0.00956
x2 = 0.8521 | -0.229 ± 0.0086
x2 = 0.9015 | -0.181 ± 0.00693
x2 = 0.9508 | -0.112 ± 0.00454

CCCCCC[n+]1ccn(C)c1.O=S(=O)([N-]S(=O)(=O)C(F)(F)F)C(F)(F)F + CCCCCC
363.15 K, 101 kPa
Settings | excess molar enthalpy [kcal/mol]
x2 = 0.02 | 0.0124 ± 0.00112
x2 = 0.0501 | 0.035 ± 0.00182
x2 = 0.1002 | 0.073 ± 0.00311
x2 = 0.1503 | 0.104 ± 0.00406
x2 = 0.2003 | 0.123 ± 0.00478
x2 = 0.3003 | 0.126 ± 0.00502
x2 = 0.4004 | 0.107 ± 0.0043
x2 = 0.5004 | 0.0878 ± 0.00359
x2 = 0.6004 | 0.0711 ± 0.00311
x2 = 0.7003 | 0.0511 ± 0.00237
x2 = 0.8002 | 0.0328 ± 0.00177
x2 = 0.9001 | 0.0157 ± 0.00122
x2 = 0.9501 | 0.00801 ± 0.00098

CCCC[n+]1ccn(C)c1.O=S(=O)([N-]S(=O)(=O)C(F)(F)F)C(F)(F)F + CCCCCC
363.15 K, 101.3 kPa
Settings | excess molar enthalpy [kcal/mol]
x2 = 0.02 | 0.0134 ± 0.00117
x2 = 0.0501 | 0.0353 ± 0.00184
x2 = 0.1002 | 0.0689 ± 0.00287
x2 = 0.1503 | 0.0949 ± 0.00382
x2 = 0.2003 | 0.109 ± 0.0043
x2 = 0.3004 | 0.0941 ± 0.00382
x2 = 0.5004 | 0.0662 ± 0.00287
x2 = 0.7004 | 0.038 ± 0.00191
x2 = 0.9002 | 0.0116 ± 0.0011

CCn1cc[n+](C)c1.O=S(=O)([N-]S(=O)(=O)C(F)(F)F)C(F)(F)F + CCCCCC
353.15 K, 101.3 kPa
Settings | excess molar enthalpy [kcal/mol]
x2 = 0.0239 | 0.0297 ± 0.00167
x2 = 0.0472 | 0.0535 ± 0.00239
x2 = 0.07 | 0.066 ± 0.00287
x2 = 0.0923 | 0.0787 ± 0.00335
x2 = 0.1354 | 0.0756 ± 0.00311
x2 = 0.2162 | 0.0688 ± 0.00287
x2 = 0.3916 | 0.0521 ± 0.00239
x2 = 0.6588 | 0.0288 ± 0.00163
x2 = 0.8528 | 0.0125 ± 0.00112

CCn1cc[n+](C)c1.O=S(=O)([N-]S(=O)(=O)C(F)(F)F)C(F)(F)F + CCCO
323.15 K, 101.3 kPa
Settings | excess molar enthalpy [kcal/mol]
x2 = 0.0418 | 0.0767 ± 0.00311
x2 = 0.0812 | 0.15 ± 0.00574
x2 = 0.1536 | 0.27 ± 0.01
x2 = 0.277 | 0.451 ± 0.0163
x2 = 0.4629 | 0.626 ± 0.0222
x2 = 0.6741 | 0.623 ± 0.0222
x2 = 0.8082 | 0.488 ± 0.0174
x2 = 0.9602 | 0.151 ± 0.00574

CCCCCC[n+]1ccn(C)c1.O=S(=O)([N-]S(=O)(=O)C(F)(F)F)C(F)(F)F + CCO
353.15 K, 101 kPa
Settings | excess molar enthalpy [kcal/mol]
x2 = 0.0506 | 0.0647 ± 0.00287
x2 = 0.1012 | 0.132 ± 0.00502
x2 = 0.1517 | 0.202 ± 0.00765
x2 = 0.2022 | 0.269 ± 0.0098
x2 = 0.4534 | 0.51 ± 0.0182
x2 = 0.6033 | 0.551 ± 0.0196
x2 = 0.9012 | 0.257 ± 0.00956
x2 = 0.9506 | 0.138 ± 0.00526
